Assay results published in ChEMBL document CHEMBL2380261, “Analogs design, synthesis and biological evaluation of peptidomimetics with potential anti-HCV activity” (Bioorg Med Chem, 2013).

Experiments:
Hepatitis C virus = experiment: microbe, parasite or virus in culture; type: functional, organism-based, Hepacivirus hominis; details: genotype 2a J6/JFH, Huh-7, 48 h
Description: Antiviral activity against Hepatitis C virus subtype 2a J6/JFH transfected in human Huh7.5 cells assessed as inhibition of viral replication after 48 hrs by luciferase reporter gene assay

[1] = Cytotoxicity against human Huh7.5 cells assessed as cell viability after 48 hrs by Alamar blue assay
[2] = Safety index, ratio of CC50 for human Huh7.5 cells to EC50 for Hepatitis C virus subtype 2a J6/JFH
[3] = Inhibition of HCV NS3 protease (1027 to 1206) after 30 mins in presence of Pep4AK; design: species or system Hepacivirus hominis

| SMILES | EC50 (Hepatitis C virus) [nM] | IC50 [3] [nM] | CC50 at 48 h [1] [nM] | selectivity ratio [2] |
| --- | --- | --- | --- | --- |
| CC(C)[C@H](NC(=O)CCC(=O)/C=C/c1ccccc1)C(=O)O | 22500 | – | > 100000 | > 4.45 |
| C[C@H](NC(=O)CCC(=O)/C=C/c1ccc2c(c1)OCO2)C(=O)O | 5440 | – | 12100 | 2.22 |
| CCOS(=O)(=O)/C=C/[C@H](Cc1ccccc1)NC(=O)CCC(=O)/C=C/c1ccccc1 | 296 | – | 1000 | – |
| CCOS(=O)(=O)/C=C/[C@H](Cc1ccccc1)NC(C)=O | 2110 | – | 7910 | 3.75 |
| CCOS(=O)(=O)/C=C/[C@@H](NC(C)=O)[C@@H](C)O | 4360 | – | 27700 | 6.36 |
| CC(C)C[C@H](NC(=O)[C@]1(Cc2ccsc2C(=O)O)Cc2ccccc2N1)C(=O)N[C@@H](CC(F)F)C(=O)C(=O)O | – | 700 | – | – |
| COC(=O)[C@@H](NC(=O)CCC(=O)/C=C/c1ccccc1)C(C)C | 381 | – | 1480 | 3.88 |
| COC(=O)[C@H](C)NC(=O)CCC(=O)/C=C/c1cccnc1 | 900 | – | 2110 | 2.34 |
| COC(=O)[C@@H](NC(=O)CCC(=O)/C=C/c1cccnc1)C(C)C | 1140 | – | 1570 | 1.38 |
| COC(=O)[C@@H](NC(=O)CCC(=O)/C=C/c1ccc2c(c1)OCO2)C(C)C | 682 | – | 1390 | 2.83 |

Further molecules by falling EC50 (Hepatitis C virus), results first:

| EC50 (Hepatitis C virus) [nM] | IC50 [3] [nM] | SMILES | CC50 at 48 h [1] [nM] | selectivity ratio [2] |
| --- | --- | --- | --- | --- |
| 1210 | – | CCOS(=O)(=O)/C=C/[C@H](Cc1ccccc1)NC(=O)OC(C)(C)C | 3500 | 2.88 |
| 960 | – | COC(=O)[C@H](C)NC(=O)CCC(=O)/C=C/c1ccccc1 | 1320 | 1.37 |
| 800 | – | CC(C)(C)NC(=O)N[C@H](C(=O)N1C[C@H]2[C@@H]([C@H]1C(=O)NC(CC1CCC1)C(=O)C(N)=O)C2(C)C)C(C)(C)C (stereo partly drawn) [BOCEPREVIR] | > 100000 | – |
| 347 | – | COC(=O)[C@H](C)NC(=O)CCC(=O)/C=C/c1ccc2c(c1)OCO2 | 1110 | 3.19 |
